As a reminder, the EC50 is the concentration that produces a half-maximal response.

Series [1] deals with T1, ZIKV NS5 MTase (Zika virus, UniProt A0A024B7W1).
T1 construct: KJ776791.2, aa 4–278; His6 (N); made in house; host or cells: Escherichia coli T7 Express Iq
The series can be described thus: ZIKV NS5 MTase radioactive filter-binding assay (2′-O-MTase activity). The settings on record: at least two experiments; for IC50: read-out: IC50 (half-maximal inhibitory enzymatic concentration). It is filed as biochemical. Here is the method:
Selected compounds were evaluated in enzymatic inhibition assays against both ZIKV and DENV 2′-O-MTase activity (For details, see Figure S3 in Supplementary Materials). The screening of compounds at a concentration of 50 µM highlighted a higher inhibitory activity against ZIKV MTase. We thus focused our efforts on ZIKV and determined the IC50 values against ZIKV MTase.
Expression and purification of ZIKV NS5 MTase: The coding sequence of the ZIKV NS5 MTase domain (strain H/PF/2013, GenBank accession no. KJ776791.2, aa 4–278) was synthesized by Genscript and cloned into a pQE30 vector (Qiagen, Hilden, Germany) with an N-terminal His6 tag. The protein was expressed and purified following the procedures described in Coutard et al..
Briefly, after expression in Escherichia coli T7 Express Iq (New England BioLabs) in Terrific Broth at 17 °C overnight, bacterial pellets were resuspended in lysis buffer (50 mM Tris-HCl [pH 8], 300 mM NaCl, 5% glycerol, 0.1% Triton, 10 μg/mL DNase I, 2 tablets of EDTA-free antiprotease cocktail [Roche] and 0.25 mg/mL lysozyme). Following cell lysis and clarification, the protein was purified by affinity on immobilized metal affinity chromatography (IMAC, His prep column [GE Healthcare]), followed by size exclusion chromatography (Superdex S75 HR 16/20 column [GE Healthcare]). The NS5-MTase was concentrated and stored at −20 °C after adding glycerol to a final concentration of 40%.
Filter-binding assay: The transfer of tritiated methyl from ^[3H]SAM onto RNA substrate was monitored by a filter-binding assay (FBA), performed according to the method described previously. FBA was carried out in a reaction mixture [40 mM Tris-HCl (pH 8.0), 1 mM DTT, 2 μM SAM, and 0.1 μM 3H-SAM (Perkin Elmer, Shelton, CT, USA)] in the presence of 0.7 μM synthetic ^7mGpppAC4 and ZIKV NS5 MTase (500 nM). The enzyme was first mixed with an increasing concentration of inhibitors, previously suspended in dimethyl sulfoxide (DMSO), before the addition of RNA substrate and SAM, and then incubated at 30 °C. The final DMSO concentration in reactions was 5%. Reaction mixtures were stopped after 30 min incubation by their 10-fold dilution in ice-cold water. Samples were transferred to diethylaminoethyl (DEAE) filtermat (Perkin Elmer, Shelton, CT, USA) using a Filtermat Harvester (Packard Instruments, Meriden, CT, USA). The RNA-retaining mats were washed twice with 10 mM ammonium formate pH 8.0, twice with water, and once with ethanol before drying. They were soaked with scintillation fluid (Perkin Elmer, Shelton, CT, USA), and 3H-methyl transfer to the RNA substrates was determined using a Wallac MicroBeta TriLux Liquid Scintillation Counter (Perkin Elmer, Shelton, CT, USA). For IC50 measurements, values were normalized and fitted with Prism (GraphPad software version 10.1.1) using the following equation: Y = 100/(1 + ((X/IC50) ^ Hillslope)).

Series [2] deals with ZIKV. The series can be described thus: ZIKV inhibitory viral plaque reduction assay in Vero E6 cells. It is filed as cell-based, Zika virus. The note with it: for IC50: Zika virus. A general note: In a plaque reduction assay, fewer plaques than in the control indicate reduced infectivity or spread.
Series [3] can be described thus: Cytotoxicity assay (MTT) on Vero E6 cells. The class given is cell-based. The settings on record: African green monkey. Here is the method:
Compounds characterized by the best anti-enzymatic activity were tested against ZIKV in cellular assays. VERO E6 cells were infected with ZIKV at a multiplicity of infection (M.O.I.) of 0.1, and their activities were evaluated by a plaque reduction assay three days post-infection. Ribavirin was used as a reference compound. As reported in Table 2, compound 1, identified in the first screening, was unable to inhibit viral replication up to a 100 μM concentration. […] The cytotoxicity of the series was determined on the same cell line. […] Their selectivity indexes were calculated as the ratio between CC50 and IC50 values; the results highlight their promising safety profile.
Monolayers of 2.5 × 10^4 Vero E6 cells per well were grown in flat-bottom 96-well culture plates and allowed to adhere overnight. Then, when the cell layers were confluent, the medium was removed, the wells were washed twice with PBS, treated with 100 µL of DMEM with 10 µL DMSO alone (cell positive control) or with various concentrations of anti-NS5 inhibitory compounds under study (compound final concentrations of 100, 10, 1, 0.1, and 0.01 μM), and incubated for 3 days at 37 °C in a CO2. After treatment, an MTT (3-(4,5-dimethylthiazol-2-yl)-2,5-diphenyltetrazolium bromide) kit (Roche, Milan, Italy) was used according to the supplier’s instructions, and the absorbance of each well was determined using a microplate spectrophotometer at a wavelength of 570 nm. Cytotoxicity was calculated by dividing the average optical density of treated samples by the average of DMSO-treated samples (cell positive control).

In series [4] the test system is ZIKV. The settings on record: cited from earlier work.
Series [5] is described as follows: Stability test in human plasma. It is filed as in vitro ADME. The settings on record: pH 7.4, 37 °C, up to 24 h, read-out: Plasma Stab. (T1/2, h ± SD) (converted). The protocol:
Finally, compounds were incubated in human plasma at 37 °C for 24 h. […] Taken together, stability studies confirmed that the series is suitable for further development.
(§1) For the ADME property determination, an Agilent 1260 Infinity HPLC-DAD interfaced with an Agilent MSD 6130 (Agilent Technologies, Palo Alto, CA, USA) was used. Chromatographic conditions were optimized using a Phenomenex Kinetex C18-100 Å column (150 × 4.6 mm) with 5 µm particle size and gradient elution with a binary solution (eluent A: H2O; eluent B: ACN; both eluents were acidified with formic acid 0.1% v/v) at room temperature. The LC analyses started with 5% of B (from t = 0 to t = 1 min), then B was increased to 95% (from t = 1 to t = 10 min) and then kept at 95% (from t = 10 to t = 19 min) and finally returned to initial conditions in 1.0 min. The flow rate was 0.6 mL/min and the injection volume was 10 µL.
A stock solution of the target compound in DMSO (2 mM) was incubated in a test tube with pooled human plasma (55.7 mg protein/mL) and HEPES buffer (25 mM, 140 mM NaCl pH 7.4) up to a final volume of 1.0 mL. The mixture was incubated at 37 °C, and at set time points (0.0, 0.5, 1, 4, 8, 24 h), samples of 50 µL were taken, mixed with 400 µL of ACN to stop the reaction of plasmatic esterases, and centrifuged at 5000 rpm for 15 min. The supernatant was removed and analyzed using the LC-UV/MS method previously described. The half-life (t½) was calculated according to the following equation: t½=ln 2/k where k represents the substrate elimination constant. For each compound, the determination was performed in three independent experiments.

Series [6] in a line: Metabolic stability in human liver microsomes. It is filed as in vitro ADME. The note with it: 1 h, 37 °C, three experiments. Here is the method:
The metabolic stability was investigated by incubating selected compounds with human liver microsomes (HLMs) for 1 h at 37 °C. The percentage of non-metabolized compounds and metabolites was analyzed by HPLC-UV-MS. […] HPLC analysis confirmed the presence of the oxidated metabolites in small percentages.
as §1
The test was performed as previously reported with minor modifications. Each compound was dissolved in DMSO and phosphate buffer (0.025 M, pH 7.4), and human liver microsomes (0.2 mg/mL) and a NADPH-regenerating system in MgCl2 48 mM were added to a final volume of 500 µL. This solution was incubated for 1 h at 37 °C and then the reaction was stopped and quenched using 1 mL of ACN. The reaction mixtures were then centrifuged (4000 rpm for 10 min) and the supernatant was taken, dried under nitrogen flow, and then resuspended in 100 µL of methanol. The parent drug and metabolites were subsequently determined using the chromatographic conditions described above. The percentage of non-metabolized compounds was calculated by comparison with reference solutions. The determination of metabolic stability for each compound was performed in three independent experiments.
Background: Liver microsomes are vesicles of endoplasmic reticulum, rich in cytochrome P450 enzymes.

[7] abbreviates: Vero C1008, read-out: IC50 ± SD (half-maximal inhibitory concentration, ZIKV plaque reduction).
Setting [8] is: VERO E6 cells, MTT, 3 days, read-out: CC50 ± SD (half-maximal cytotoxic concentration).

Where two headings read alike, the source gives them in different places.

T1 sequence (A0A024B7W1 2524-2798): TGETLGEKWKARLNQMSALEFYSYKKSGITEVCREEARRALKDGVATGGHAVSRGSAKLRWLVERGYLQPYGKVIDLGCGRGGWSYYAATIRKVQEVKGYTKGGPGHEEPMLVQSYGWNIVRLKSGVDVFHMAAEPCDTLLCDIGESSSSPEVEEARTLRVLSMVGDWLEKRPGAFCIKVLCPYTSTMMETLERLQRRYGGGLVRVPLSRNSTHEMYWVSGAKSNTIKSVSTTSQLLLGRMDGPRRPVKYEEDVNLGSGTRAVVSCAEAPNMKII

Take `O=C(Nc1ccc2c(c1)C(=O)NC2)c1cc2ccccc2s1` [Compound 13]: the IC50 in series [1] came out at 46 µM.

For the molecule `CN1C(=O)c2ccc(NC(=O)c3cc4c(Cl)cccc4s3)cc2C1=O` [Compound 18], the IC50 in series [1] is 100 µM.

`CN1C(=O)c2ccc(NC(=O)c3sc4ccccc4c3Cl)cc2C1=O` [Compound 16]: the “SI (Selectivity Index, ratio between CC50 and IC50)” value in series [2] (VERO E6 cells) was more than 38.46. For the same molecule, the IC50 turned out to be 2.6 ± 0.2 µM in series [2] (setting [7]) and 13.1 µM in series [1]. In addition, the CC50 at 3 days in series [3] (setting [8]) is more than 100 µM.

Regarding `CCN(CC)CCCC(C)Nc1ccnc2cc(Cl)ccc12` (centres unmarked) [chloroquine], in series [4] (read-out: in vitro EC50 against ZIKV), the EC50 is approximately 5 µM.

Turning to `O=C(Nc1ccccc1)c1cc2cc([N+](=O)[O-])ccc2s1` [Compound 7], the IC50 in series [1] turned out to be 57 µM.

Consider `NC(=O)c1ncn([C@@H]2O[C@H](CO)[C@@H](O)[C@H]2O)n1` [ribavirin, 1-β-d-Ribofuranosyl-1,2,4-Triazole-3-Carboxamide, reference compound], for which the “SI (Selectivity Index, ratio between CC50 and IC50)” value in series [2] (VERO E6 cells) is on record as 1.05. Also, the IC50 in series [2] (Vero C1008, VERO E6 cells, ZIKV M.O.I. 0.1, at least two experiments, read-out: IC50 ± SD (half-maximal inhibitory concentration, ZIKV plaque reduction)) came out at 95.5 ± 0.6 µM. Moreover, the “EC50 against ZIKV” value in series [4] was “high micromolar range”. Moreover, the CC50 at 3 days in series [3] is 100 ± 14 µM.

For the molecule `CN1C(=O)c2ccc(NC(=O)c3cc4cc([N+](=O)[O-])ccc4s3)cc2C1=O` [Compound 3], the “SI (Selectivity Index, ratio between CC50 and IC50)” value in series [2] (VERO E6 cells) is more than 3.49. For the same molecule, the IC50 in series [2] (setting [7]) stood at 28.6 ± 1.3 µM; in series [1], 16.6 µM. Besides, the CC50 at 3 days in series [3] (setting [8]) was more than 100 µM.

For the molecule `Cc1ccc2sc(C(=O)Nc3ccc4c(c3)C(=O)N(C)C4=O)cc2c1` [Compound 19], the IC50 in series [1] came to 40 µM.

In the case of `CN1C(=O)c2ccc(NC(=O)c3cc4ccccc4s3)cc2C1=O` [Compound 14], in series [1], the IC50 came to 31 µM.

As for `CN1C(=O)c2ccc(NC(=O)c3cc4cc(Cl)ccc4s3)cc2C1=O` [Compound 15], the half-life in series [5] was more than 24 h. Moreover, in series [2] (VERO E6 cells), the “SI (Selectivity Index, ratio between CC50 and IC50)” value is more than 71.43. Besides, the IC50 in series [2] (setting [7]) was 1.4 ± 0.3 µM; in series [1], 14.2 µM. Further, the “HLM Stab.% ± SD (percentage of non-metabolized compound)” value in series [6] came out at 98.57 ± 0.07%. Further, in series [3] (setting [8]), the CC50 at 3 days was more than 100 µM.

`CNC(=O)c1ccc(NC(=O)c2cc3ccccc3s2)cc1` [Compound 11]: in series [1], the “IC50 (half-maximal inhibitory enzymatic concentration)” value is on record as “completely abolished the activity” and the IC50 is more than 100 µM.

On to `NC(=O)c1ccc(NC(=O)c2cc3cc([N+](=O)[O-])ccc3s2)cc1` [Compound 5], for which the IC50 in series [1] turned out to be 37 µM.

Consider `Cc1cccc2cc(C(=O)Nc3ccc4c(c3)C(=O)N(C)C4=O)sc12` [Compound 20], for which, in series [5], the half-life is more than 24 h. Moreover, the “SI (Selectivity Index, ratio between CC50 and IC50)” value in series [2] (VERO E6 cells) is given as more than 15.15. The IC50 in series [2] (setting [7]) was found to be 6.6 ± 0.5 µM; in series [1], 18.9 µM. Also, the “HLM Stab.% ± SD (percentage of non-metabolized compound)” value in series [6] was found to be 98.40 ± 0.12%. Besides, in series [3] (setting [8]), the CC50 at 3 days was more than 100 µM.

Turning to `NC(=O)c1ccc(NC(=O)c2cc3ccccc3s2)cc1` [Compound 10], the IC50 in series [1] worked out at 36 µM.

For the molecule `NS(=O)(=O)c1cccc(NC(=O)c2cc3cc([N+](=O)[O-])ccc3s2)c1` [Compound 4], the IC50 in series [1] worked out at 34 µM.

`CN1C(=O)c2ccc(NC(=O)c3cc4ccccc4o3)cc2C1=O` [Compound 9]: in series [1], the “IC50 (half-maximal inhibitory enzymatic concentration)” value was “completely inactive” and the IC50 was more than 100 µM.

As for `CNC(=O)c1cccc(NC(=O)c2cc3ccccc3s2)c1` [Compound 12], in series [1], the “IC50 (half-maximal inhibitory enzymatic concentration)” value is “completely abolished the activity” and the IC50 was more than 100 µM.

For `O=C(Nc1ccc2c(c1)C(=O)NC2)c1cc2cc([N+](=O)[O-])ccc2s1` [Compound 2], the IC50 in series [1] came to 20 µM.

Consider `CN1C(=O)c2ccc(NC(=O)c3cc4cc([N+](=O)[O-])ccc4o3)cc2C1=O` [Compound 8], for which, in series [5], the half-life was 7.31 ± 0.17 h. Moreover, the “SI (Selectivity Index, ratio between CC50 and IC50)” value in series [2] (VERO E6 cells) is more than 52.63. Besides, the IC50 in series [2] (setting [7]) was determined as 1.9 ± 0.3 µM; in series [1] it was 22.6 µM. Also, the “HLM Stab.% ± SD (percentage of non-metabolized compound)” value in series [6] is recorded as 96.93 ± 0.57%. Moreover, the CC50 at 3 days in series [3] (setting [8]) is more than 100 µM.

As to `O=C(O)c1ccc(NC(=O)c2cc3cc([N+](=O)[O-])ccc3s2)cc1` [Compound 6], in series [1], the IC50 is 50 µM.
